# Like-named read-outs stand apart in the source and are kept apart here.
# Biological target: T1, angiotensin converting enzyme (ACE) (Oryctolagus cuniculus, UniProt P12822)
# T1 construct: a slurry of 10 g of lyophilized rabbit lung powder (Pel-Freez); tissue Pel-Freez; host or cells: rabbit lung (lyophilized powder, buffer extract)
# T1 sequence (P12822 34-1310): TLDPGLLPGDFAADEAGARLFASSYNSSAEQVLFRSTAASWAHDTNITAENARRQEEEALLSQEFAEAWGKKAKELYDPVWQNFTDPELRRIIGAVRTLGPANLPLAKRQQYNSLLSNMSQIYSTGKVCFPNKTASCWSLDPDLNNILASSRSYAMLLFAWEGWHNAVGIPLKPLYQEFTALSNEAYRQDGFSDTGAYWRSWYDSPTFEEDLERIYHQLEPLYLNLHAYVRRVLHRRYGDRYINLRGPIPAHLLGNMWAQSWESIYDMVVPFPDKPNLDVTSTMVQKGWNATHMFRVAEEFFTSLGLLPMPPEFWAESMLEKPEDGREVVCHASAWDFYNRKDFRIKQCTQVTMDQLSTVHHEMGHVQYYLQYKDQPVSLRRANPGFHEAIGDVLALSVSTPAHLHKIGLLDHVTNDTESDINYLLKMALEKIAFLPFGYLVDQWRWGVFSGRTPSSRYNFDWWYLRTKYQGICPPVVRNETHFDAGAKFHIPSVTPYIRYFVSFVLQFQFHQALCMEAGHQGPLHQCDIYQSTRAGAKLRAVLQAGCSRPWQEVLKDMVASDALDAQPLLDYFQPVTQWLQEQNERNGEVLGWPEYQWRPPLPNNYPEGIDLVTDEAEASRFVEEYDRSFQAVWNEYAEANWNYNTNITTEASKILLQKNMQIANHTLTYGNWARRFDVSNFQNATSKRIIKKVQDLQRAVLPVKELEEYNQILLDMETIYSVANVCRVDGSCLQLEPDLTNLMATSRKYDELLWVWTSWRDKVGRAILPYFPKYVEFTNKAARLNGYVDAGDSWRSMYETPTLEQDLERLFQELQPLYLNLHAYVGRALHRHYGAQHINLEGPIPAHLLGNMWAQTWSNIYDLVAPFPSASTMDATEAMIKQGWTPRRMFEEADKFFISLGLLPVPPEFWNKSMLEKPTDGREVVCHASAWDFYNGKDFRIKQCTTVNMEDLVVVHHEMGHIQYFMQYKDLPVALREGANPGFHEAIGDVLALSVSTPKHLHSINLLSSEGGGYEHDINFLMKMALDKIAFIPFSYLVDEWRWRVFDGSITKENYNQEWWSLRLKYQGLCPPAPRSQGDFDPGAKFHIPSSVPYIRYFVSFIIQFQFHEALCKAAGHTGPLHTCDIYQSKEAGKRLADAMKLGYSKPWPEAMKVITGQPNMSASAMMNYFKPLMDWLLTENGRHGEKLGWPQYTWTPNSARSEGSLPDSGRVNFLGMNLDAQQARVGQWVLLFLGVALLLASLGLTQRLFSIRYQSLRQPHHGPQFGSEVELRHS
# Assay: IC50 Assay (Cushman and Cheung; hippuryl-L-histidyl-L-leucine hydrolysis by rabbit lung powder extract)
# Format: biochemical
# Description: According to the assay of Cushman and Cheung Biochem. Pharmacol 20, 1637, (1971), a slurry of 10 g of lyophilized rabbit lung powder (Pel-Freez) and 100 mL of 50 mM potassium phosphate buffer, pH 8.3, was blended for three one minute intervals followed by centrifugation for 40 minutes at 17,500 rpm. The clear supernatant was assayed for protein by the modified Lowry test and the volume of the rabbit lung powder extract (RLPE) was adjusted with buffer, 100 mM phosphate buffer prepared to yield a pH of 8.3 in the presence of 300 mM NaCl, to give 10-20 mU of angiotensin converting enzyme (ACE) activity in a 100 μL volume. The assay was carried out in 13×100 mm disposable culture tubes, with each assay tube containing 100 μL RLPE, 50 μL of a 12.5 mM solution of hippuryl-L-histidyl-L-leucine (HHL) (Sigma) in a buffer and 100 μL of inhibitor solution made up in buffer. The enzyme is added last to initiate the reaction and the tubes are incubated at 37° C. for one hour. The assay is terminated by the addition of 250 μL of 1M HCl to each tube; the HCl is added before the enzyme in the zero-time control assays. To each tube is added 1.5 mL of ethyl acetate followed by vortex mixing for 15 seconds. After the tubes have been centrifuged at 2,500 rpm for 5 minutes, 1 mL of the ethyl acetate layer is transferred to a clean 12×75 mm disposable culture tube. The ethyl acetate was evaporated by heating at 90° C. in a water bath for 30 minutes. Addition of 1 mL of water to each tube followed by vortex mixing for 15 seconds redissolves the hippuric acid. […]
SMILES,A228 ± SD (-log[MIBA] 7.246),A228 ± SD (-log[MIBA] 8.246),A228 ± SD (-log[MIBA] 9.246),A228 ± SD (-log[MIBA] 10.246),A228 ± SD (-log[MIBA] 11.246),"IC50 (rabbit lung ACE, HHL substrate, pH 8.3, 37° C., one hour, read-out: IC50) [nM]",IC50 [nM],A228 ± SD (-log[Lisin] 6.206),A228 ± SD (-log[Lisin] 7.206),A228 ± SD (-log[Lisin] 8.206),A228 ± SD (-log[Lisin] 9.206),A228 ± SD (-log[Lisin] 10.206)
O=C(NCCCC[C@H](N[C@@H](CCc1ccccc1)C(=O)O)C(=O)N1CCC[C@H]1C(=O)O)c1cccc(I)c1 [lisinopril MIBA],0.025 ± 0.007,0.224 ± 0.016,1.196 ± 0.026,2.174 ± 0.047,2.360 ± 0.060,0.6,–,–,–,–,–,–
"NCCCC[C@H](N[C@@H](CCc1ccccc1)C(=O)O)C(=O)N1CCC[C@H]1C(=O)O [lisinopril, reference compound]",–,–,–,–,–,–,5.4,0.029 ± 0.007,0.175 ± 0.007,0.946 ± 0.012,2.275 ± 0.031,2.371 ± 0.060

# Reference: US5601801A, “Radiolabelled angiotensin converting enzyme inhibitors” (Merck Frosst Canada, Inc., priority 1994, dated 1997)
